Assay results published in US20050032745A1, “Modified low molecular weight heparin that inhibits clot associated coagulation factors” (Hamilton Civic Hospitals Res Dev., Inc., priority 2000, published 2005).

How the values were obtained:
washed plasma clot = assay: procoagulant activity of washed plasma clot incubated in unanticoagulated whole blood; format: biochemical
Description: There is mounting evidence that both fibrin-bound thrombin and platelet-bound factor Xa contribute to the intense procoagulant activity of thrombi. […] Development of these agents requires an understanding of the mechanisms by which fibrin-bound IIa and platelet-bound factor Xa are protected from inactivation by heparin, LMWH and hirudin.

injured rabbit aorta = assay: rabbit arterial thrombosis prevention model (flow distal to 95% stenosis in injured aorta); format: in vivo; conditions: FIG. 11
Description: This example illustrates a study comparing the efficacy and safety of the MLMWH compounds of the present invention, which are denoted in the figures as V21, LMWH, heparin and hirudin in a the rabbit arterial thrombosis prevention model. […] The arterial thrombosis prevention model was modified so that both efficacy and safety could be assessed in the same animal. Efficacy was assessed by measuring flow over 90 minutes distal to a 95% stenosis in an injured rabbit aorta, and safety was assessed by measuring blood loss over 30 minutes using the rabbit ear model. The four compounds were compared at three dosage levels. Each compound was administered as a bolus and infusion for 90 minutes. The doses listed in the following figures represent the bolus and infusion/60 minutes, administered for 90 minutes. The doses for heparin are shown as units/Kg, for LMWH and V21 as mg/Kg and for hirudin as mg/Kg. V21 has similar anti-Xa activity to LMWH and about twice the anti-IIa activity of LMWH. Thus, the specific activity of LMWH is 100 anti-Xa/mg and 30 anti-IIa units/mg. The specific activity of V21 is 100 anti-Xa units/mg and 60 anti-IIa units/mg, whereas the specific activity of heparin is about 150 anti-Xa units and 150 anti-IIa units/mg. The anticoagulants were compared in the following dosages. […]

| Substance | blocking of the ability of a washed plasma clot to accelerate coagulation (washed plasma clot) | response of the model to the antithrombotic effects (injured rabbit aorta) |
| --- | --- | --- |
| TAP: tick anticoagulant peptide, a direct inhibitor of factor Xa (YNRLCIKPRDWIDECDSNEGGERAYFRNGKGGCDSFWICPEDHTGADYYSSYRDCFNACI; UniProt P17726 1-60, looked up) | cannot be blocked |  |
| hirudin | cannot be blocked | very responsive |
